{"source": "paper PMC9986244", "about": "“Connection between MHC class II binding and aggregation propensity: The antigenic peptide 10 of Paracoccidioides brasiliensis as a benchmark study” (Computational and Structural Biotechnology Journal, 2023)", "key": {"[1]": {"assay": "In vitro aggregation, Congo red (CR) binding", "assay_type": "physicochemical", "conditions": "20 μM peptide in PBS pH 7.4, 37 °C, 18 h; pellet (17,000 X g, 30 min) with 10 µM Congo red 5 min, absorbance 540 and 477 nm; in words, Fig. 6", "method": "(§1) For in-vitro aggregation assays, P10 and a total of ten selected P10 variants were purchased from Genscript with purity above 95 % and diluted in DMSO (Sigma-Aldrich code D8418) 100 % to a final concentration of 5 mM (stock solution) and kept at −20 °C for storage.\n(§2) P10 and its variants stock solutions were diluted in PBS at 20 μM; pH 7.4 at 37 °C for 18 h under agitation. To measure light scattering (LS), samples were excited at 320 nm while emission was collected at 320 nm in the spectrofluorometer Jasco FP8200 (Jasco Corp., Tokyo, Japan). Aliquots of the aggregation suspension were diluted in the presence of Thioflavin-T (Sigma-Aldrich code T3516) (ThT; 50 μM and peptide 20 μM), a specific fluorescent probe for AF. ThT fluorescence emission was measured at 485 nm by exciting the samples at 450 nm. Congo red (Sigma-Aldrich code C6767) binding assays, another amyloid specific probe, were performed according to Palhano [47]. The samples (50 μL) were centrifuged at 17,000 X g for 30 min, and the pellet was incubated with 10 µM Congo red solution for 5 min. The absorbance was measured at 540 and 477 nm and the fraction of bound Congo red was determined by the following formula [mol of bound Congo red/mol of protein = OD540/25,295 – OD477/46,306]."}, "[2]": {"assay": "In vitro aggregation, Thioflavin-T (ThT) binding", "assay_type": "physicochemical", "conditions": "20 μM peptide in PBS pH 7.4, 37 °C, 18 h; ThT 50 μM, excitation 450 nm, emission 485 nm; in words, Fig. 6", "method": "as §1, §2"}, "[3]": {"assay": "Transmission electron microscopy (TEM) of aggregates", "assay_type": "physicochemical", "conditions": "peptide in PBS, 18 h, 37 °C; negative staining 2 % uranyl acetate; 20 μM (Fig. 7 legend), 100 µM (method)", "method": "[…] of each peptide suspension (100 µM) was absorbed onto 200-mesh carbon-coated copper grids (Pelco, Ref: 01800 F) for 5 min and then blotted to remove excess material. Negative staining was performed by adding […] of 2 % (w/v) uranyl acetate. Samples were dried on air for 3 min. The grids were imaged with a Jeol 1200 electron microscope (Jeol Ltd.) operating at a 60 kV acceleration voltage."}, "[4]": {"assay": "In vitro aggregation, light scattering (LS)", "assay_type": "physicochemical", "conditions": "20 μM peptide in PBS pH 7.4 from 5 mM DMSO stock, 37 °C, 18 h under agitation; excitation and emission 320 nm; in words, Fig. 6", "method": "as §1, §2"}, "[5]": {"conditions": "previously shown; cited from earlier work", "from_the_text": "Since P10 aggregates into AF in vitro, we investigated whether the peptides probed with ProImmune REVEAL® binding assays were able to form amyloid aggregates as well. To address this question, we initially submitted the ten selected sequences of the P10 variants (V1, V3, V5, V6, V7, V10, V11, V14, V15 and V16) to Cordax, an amyloid structure predictor able to model a given structure into steric zippers common to amyloids. For most of these P10 variants, regardless of their SF, at least two types of consensus steric zippers encompassing the sequence ^7(H)TLAIR(Y)^13 were predicted. The exceptio ..."}, "[6]": {"conditions": "depends on peptide concentration, pH and temperature; cited from earlier work", "from_the_text": "In addition to peptide binding affinity, other properties to evaluate are their solubility and aggregation propensity. […] Many proteins and peptides in solution can aggregate into amyloid fibrils (AF), a type of aggregate that can accumulate in organs and tissues causing diseases such as Parkinson’s and Alzheimer’s. […] Here, we describe an additional layer of information that could be used to predict good and poor epitope-binders to MHC-II, which is its aggregation propensity. According to the Aggregation hypothesis of antigen selection as enunciated by Forsdyke, [54], homoaggregation of antigen ..."}, "[7]": {"tested_on": "Paracoccidioides brasiliensis", "conditions": "immunization, compared with full gp43; cited from earlier work", "from_the_text": "(§3) In addition to peptide binding affinity, other properties to evaluate are their solubility and aggregation propensity. […] Many proteins and peptides in solution can aggregate into amyloid fibrils (AF), a type of aggregate that can accumulate in organs and tissues causing diseases such as Parkinson’s and Alzheimer’s. This is the case of P10 ([…]), ..."}, "[8]": {"tested_on": "MHC-II alleles", "conditions": "cited from earlier work", "from_the_text": "as §3"}}, "note": "“Also recorded” adds a separate entry of the source."}
{"sequence": "QTLTAIHTLAIRYAN [Peptide V6]", "values": [{"measurement": "Congo red (CR) binding", "setting": "[1]", "value": "bind CR"}, {"measurement": "Thioflavin T (ThT) binding", "setting": "[2]", "value": "did not bind ThT"}, {"measurement": "Morphology of aggregates by TEM", "setting": "[3]", "value": "formed mature amyloid fibrils"}]}
{"sequence": "QTLLDIHTLAIRYAN [Peptide V1]", "values": [{"measurement": "Light scattering (LS)", "setting": "[4]", "value": "behaved like P10"}, {"measurement": "Congo red (CR) binding", "setting": "[1]", "value": "behaved like P10"}, {"measurement": "Thioflavin T (ThT) binding", "setting": "[2]", "value": "behaved like P10"}, {"measurement": "Morphology of aggregates by TEM", "setting": "[3]", "value": "amyloid fibrils were observed"}]}
{"sequence": "QGLKAIHTLAIRYAN [Peptide V10]", "values": [{"measurement": "Congo red (CR) binding", "setting": "[1]", "value": "bind CR"}, {"measurement": "Thioflavin T (ThT) binding", "setting": "[2]", "value": "did not bind ThT"}, {"measurement": "Morphology of aggregates by TEM", "setting": "[3]", "value": "formed mature amyloid fibrils"}]}
{"sequence": "QTLIAIHTLAIRYAN [Peptide P10]", "values": [{"measurement": "Regions able to form steric zippers", "setting": "[5]", "value": "^2TLIAIH^7, ^3LIAIHT^8, ^4IAIHTL^9, ^7HTLAIR^12 and ^8TLAIRY^13"}, {"measurement": "Aggregation in solution", "setting": "[6]", "value": "aggregate into insoluble AF; also recorded: more prominent at neutral pH than at acidic pH"}, {"measurement": "Protection of mice against Pb infection", "setting": "[7]", "value": "protecting mice against Pb infection as effectively as using the full gp43"}, {"measurement": "Binding to a set of MHC-II alleles", "setting": "[8]", "value": "nanomolar"}]}
{"sequence": "QTYHAIHTLAIRYAN [Peptide V14]", "values": [{"measurement": "Morphology of aggregates by TEM", "setting": "[3]", "value": "ribbon-like appearance"}]}
